Assay results as given in publication PMC11203266, “Continuous evolution of compact protein degradation tags regulated by selective molecular glues” (Science (New York, N.Y.), 2024).

Assays:
[1] = target: T1, full-length CRBN (Homo sapiens, UniProt Q96SW2); assay: Full-length CRBN MG-PACE circuit luminescence assay; type: cell-based; conditions: pomalidomide; degron SD0; vs DMSO
T1 construct: Full-length CRBN MG-PACE circuit; expressed in transfected cells; host or cells: E. coli S2060
From the text: To evolve ZFs that engage PT-179-bound CRBN, we constructed an MG-PACE circuit using the CRBN•IMiD•ZF molecular glue complex. […] We translationally fused CRBN to the DNA-binding protein RR69 and fused SD0 to the RNAP ω-subunit, then measured transcriptional activation by luminescence (Fig. 2A).
Chemically competent S2060 cells were co-transformed with accessory and complementary plasmids (Table S1).

[2] = target: CRBNCTD (Homo sapiens, UniProt Q96SW2); assay: CRBNCTD MG-PACE circuit luminescence assay; type: cell-based; conditions: pomalidomide; degron SD0; vs DMSO
From the text: We also explored anchoring the circuit with the CRBN C-terminal domain (CTD) alone, which contains the IMiD binding pocket (Fig. 2B) ([65], [69]). […] We attributed the difference in maximum circuit activation to poor expression of full-length CRBN in E. coli. In our initial efforts, we used the CRBNCTD MG-PACE circuit, hypothesizing that higher activation (lower selection stringency) would better support weak-binding SD0 variants in the early stages of evolution.
Chemically competent S2060 cells were co-transformed with accessory and complementary plasmids (Table S1). Cells were plated on LB agar supplemented with carbenicillin, spectinomycin, and tetracycline and grown overnight at 37 °C. Single colonies were seeded in 1 mL DRM with carbenicillin and spectinomycin and grown overnight in a 37 °C shaker at 220 rpm. Overnight cultures were back-diluted 1:100 in DRM with carbenicillin and spectinomycin and grown at 37 °C with shaking until OD600 values reached 0.3-0.4. Polymyxin B nonapeptide (PMBN) was added to a final concentration of 3 μg/mL culture from a 1000x stock (3 mg/mL in DMSO). […] 96-well plates were then incubated in an Infinite M1000 Pro microplate reader (Tecan) at 37 °C with continuous shaking for ~1 hour prior to reading A600 nm and luminescence values. Raw luminescence values were then divided by the corresponding A600 nm values to normalize to cell density.

[3] = test system: PLK1-SD40; assay: Immunoblot, endogenous SD40-tagged PLK1 in HEK293T cells; type: cell-based, human; conditions: 2 hours of treatment
From the text: Next, we evaluated the installation of SD40 at endogenous genomic target genes in mammalian cells using twin prime editing (twin PE) ([54], [75]). We optimized prime editing parameters, including spacer position and prime editor construct ([30]), to insert SD40 at the C-terminus of PLK1 with 26% editing efficiency and 8.8% indel byproducts in HEK293T cells (Fig. 3E, fig. S13), enabling rapid isolation of a homozygous PLK1-SD40 cell line. PLK1 is an essential cell-state regulator ([76]), and complete knockdown for 24 hours is cytotoxic. […] We also used twin prime editing to install SD40 at the N-terminus of BRD4 yielding 7.7% knock-in of SD40 in K562 cells (Fig. 3E, S13) with 4.3% indel byproducts. […] For comparison, we also attempted scarless insertion of SD40 and FKBP12^F36V from the dTag system (324 base pairs) ([17]) at the N-terminus of BRD4 using Cas9 nuclease-directed HDR using two different sgRNAs and a double-strand donor DNA template. […]
HEK293T or K562 cells were plated at a density of 1.6 x 10^5 cells/well in a 24-well plate coated with poly-D-lysine (Corning) in 1 mL media (DMEM + 10% FBS for HEK293T cells and RPMI + 10% FBS for K562 cells). […] Protein concentration in clarified lysates was quantified using Pierce BCA Protein Assay Kit (Thermo Scientific) according to the manufacturer’s protocol. […]

Sequence of CRBNCTD (Q96SW2 318-426 limits assumed): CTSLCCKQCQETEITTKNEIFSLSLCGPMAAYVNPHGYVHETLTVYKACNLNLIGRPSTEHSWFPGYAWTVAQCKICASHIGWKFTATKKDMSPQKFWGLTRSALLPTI
T1 sequence (Q96SW2 whole entry): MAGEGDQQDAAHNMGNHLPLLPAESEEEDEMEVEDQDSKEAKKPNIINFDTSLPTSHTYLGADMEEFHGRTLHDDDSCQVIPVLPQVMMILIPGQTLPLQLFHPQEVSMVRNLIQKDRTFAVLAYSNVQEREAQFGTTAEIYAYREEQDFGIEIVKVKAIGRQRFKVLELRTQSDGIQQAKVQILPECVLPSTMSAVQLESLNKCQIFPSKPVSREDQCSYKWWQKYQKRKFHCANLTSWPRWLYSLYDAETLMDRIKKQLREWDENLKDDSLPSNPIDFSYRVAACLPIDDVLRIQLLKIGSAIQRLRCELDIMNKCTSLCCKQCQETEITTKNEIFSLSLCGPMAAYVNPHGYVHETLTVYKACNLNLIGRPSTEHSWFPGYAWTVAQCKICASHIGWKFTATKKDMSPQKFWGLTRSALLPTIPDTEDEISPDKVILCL

Row | Compound | maximal transcriptional activation [1] | transcriptional activation at the highest dose [2] | PLK1 knockdown (in words) [3]
1 | Nc1cccc2c1C(=O)N(C1CCC(=O)NC1=O)C2=O (stereo not drawn) [pomalidomide, reference compound] | 7 fold | 13 fold | 
2 | O=C1CCC(N2C(=O)c3ccc(N4CCOCC4)cc3C2=O)C(=O)N1 (stereo not drawn) [PT-179] |  |  | robust PLK1 knockdown
